Laboratory results from the supplement of paper PMC9663587.

Tests used:
[1] = compound: CCc1cnn2c(NCc3ccc[n+]([O-])c3)cc(N3CCCC[C@H]3CCO)nc12; assay: increase in dead-cell fraction, 72 h; higher = more death;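 also: breast cancer cell lines in 384-well plates, stained with Hoechst plus LIVE/DEAD far red dye and imaged, cells above an LDR intensity threshold counted dead, Hoechst-negative corpses included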
YKL-5-124 = compound: C=CC(=O)Nc1ccc(C(=O)Nc2[nH]nc3c2CN(C(=O)N[C@H](CN(C)C)c2ccccc2)C3(C)C)cc1 [YKL-5-124]; assay: as above
Neratinib/HKI272 = compound: CCOc1cc2ncc(C#N)c(Nc3ccc(OCc4ccccn4)c(Cl)c3)c2cc1NC(=O)/C=C/CN(C)C [Neratinib/HKI272]; assay: as above
[2] = compound: CC(=O)c1c(C)c2cnc(Nc3ccc(N4CCNCC4)cn3)nc2n(C2CCCC2)c1=O; assay: as above
THZ531 [3] = compound: T1, CN(C)C/C=C/C(=O)Nc1ccc(C(=O)N2CCC[C@@H](Nc3ncc(Cl)c(-c4c[nH]c5ccccc45)n3)C2)cc1 [THZ531]; assay: as above
BSJ-03-123 = compound: CC(=O)c1c(C)c2cnc(Nc3ccc(N4CCN(CCOCCOCCOCCNC(=O)COc5cccc6c5C(=O)N(C5CCC(=O)NC5=O)C6=O)CC4)cn3)nc2n(C2CCCC2)c1=O [BSJ-03-123]; assay: as above
THZ1 [4] = compound: T2, CN(C)C/C=C/C(=O)Nc1ccc(C(=O)Nc2cccc(Nc3ncc(Cl)c(-c4c[nH]c5ccccc45)n3)c2)cc1 [THZ1]; assay: as above
LEE011/Ribociclib = compound: CN(C)C(=O)c1cc2cnc(Nc3ccc(N4CCNCC4)cn3)nc2n1C1CCCC1 [LEE011/Ribociclib]; assay: as above
[5] = compound: COc1ccc2c(c1)[C@]1(C[C@H]1c1ccc3c(/C=C/c4ccc(CN5C[C@@H](C)O[C@@H](C)C5)cc4)n[nH]c3c1)C(=O)N2
Rucaparib = compound: CNCc1ccc(-c2[nH]c3cc(F)cc4c3c2CCNC4=O)cc1 [Rucaparib]
Saracatinib/AZD0530 = compound: CN1CCN(CCOc2cc(OC3CCOCC3)c3c(Nc4c(Cl)ccc5c4OCO5)ncnc3c2)CC1 [Saracatinib/AZD0530]
[6] = compound: CCCCOc1c(C(=O)c2c(F)cc(C)cc2F)c[nH]c2nncc1-2
Cediranib/AZD2171 = compound: COc1cc2c(Oc3ccc4[nH]c(C)cc4c3F)ncnc2cc1OCCCN1CCCC1 [Cediranib/AZD2171]
[7] = compound: CO[C@@H](C)Cn1c(=O)n(C)c2cnc3ccc(-c4cncc(C(C)(C)O)c4)cc3c21
BVD523 = compound: CC(C)Nc1cc(-c2c[nH]c(C(=O)N[C@H](CO)c3cccc(Cl)c3)c2)c(Cl)cn1 [BVD523]
Alpelisib/BYL719 = compound: Cc1nc(NC(=O)N2CCC[C@H]2C(N)=O)sc1-c1ccnc(C(C)(C)C(F)(F)F)c1 [Alpelisib/BYL719]
AZD1775 = compound: C=CCn1c(=O)c2cnc(Nc3ccc(N4CCN(C)CC4)cc3)nc2n1-c1cccc(C(C)(C)O)n1 [AZD1775]
THZ531 [8] = compound: T1, THZ531
THZ1 [9] = compound: T2, THZ1
[10] = compound: CC(=O)Nc1cccc(-n2c(=O)n(C3CC3)c(=O)c3c(Nc4ccc(I)cc4F)n(C)c(=O)c(C)c32)c1
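For GR50, 72 h in this document: breast cancer and non-malignant breast epithelial cell lines, Deep Dye Drop or Dye Drop imaging, nine half-log doses, GR normalized to time-zero plates and DMSO-only controls.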

## MDAMB468
[1]; 0.0001 µM
  increase in dead-cell fraction: 0.0037
[1]; 0.0003162 µM
  increase in dead-cell fraction: -0.0009
[1]; 0.001 µM
  increase in dead-cell fraction: -0.0038
[1]; 0.003162 µM
  increase in dead-cell fraction: 0.0016
[1]; 0.01 µM
  increase in dead-cell fraction: 0.0237
[1]; 0.03162 µM
  increase in dead-cell fraction: 0.245
[1]; 0.1 µM
  increase in dead-cell fraction: 0.396
[1]; 0.3162 µM
  increase in dead-cell fraction: 0.462
[1]; 1 µM
  increase in dead-cell fraction: 0.494
YKL-5-124; 0.001 µM
  increase in dead-cell fraction: 0.0818
YKL-5-124; 0.003162 µM
  increase in dead-cell fraction: 0.116
YKL-5-124; 0.01 µM
  increase in dead-cell fraction: 0.0906
YKL-5-124; 0.03162 µM
  increase in dead-cell fraction: 0.163
YKL-5-124; 0.1 µM
  increase in dead-cell fraction: 0.171
YKL-5-124; 0.3162 µM
  increase in dead-cell fraction: 0.183
YKL-5-124; 1 µM
  increase in dead-cell fraction: 0.231
YKL-5-124; 3.162 µM
  increase in dead-cell fraction: 0.213
YKL-5-124; 10 µM
  increase in dead-cell fraction: 0.386
Neratinib/HKI272; 0.0003162 µM
  increase in dead-cell fraction: 0.0075
Neratinib/HKI272; 0.001 µM
  increase in dead-cell fraction: 0.0021
Neratinib/HKI272; 0.003162 µM
  increase in dead-cell fraction: 0.0111
Neratinib/HKI272; 0.01 µM
  increase in dead-cell fraction: 0.0196
Neratinib/HKI272; 0.03162 µM
  increase in dead-cell fraction: 0.0337
Neratinib/HKI272; 0.1 µM
  increase in dead-cell fraction: 0.0953
Neratinib/HKI272; 0.3162 µM
  increase in dead-cell fraction: 0.205
Neratinib/HKI272; 1 µM
  increase in dead-cell fraction: 0.381
Neratinib/HKI272; 3.162 µM
  increase in dead-cell fraction: 0.6
[2]; 0.0003162 µM
  increase in dead-cell fraction: 0.0165
[2]; 0.001 µM
  increase in dead-cell fraction: 0.0114
[2]; 0.003162 µM
  increase in dead-cell fraction: 0.0024
[2]; 0.01 µM
  increase in dead-cell fraction: -0.0003
[2]; 0.03162 µM
  increase in dead-cell fraction: 0.0031
[2]; 0.1 µM
  increase in dead-cell fraction: -0.006
[2]; 0.3162 µM
  increase in dead-cell fraction: -0.0071
[2]; 1 µM
  increase in dead-cell fraction: -0.001
[2]; 3.162 µM
  increase in dead-cell fraction: -0.0077
THZ531 [3]; 0.0001 µM
  increase in dead-cell fraction: -0.0128
THZ531 [3]; 0.0003162 µM
  increase in dead-cell fraction: 0.0007
THZ531 [3]; 0.001 µM
  increase in dead-cell fraction: -0.006
THZ531 [3]; 0.003162 µM
  increase in dead-cell fraction: 0.0023
THZ531 [3]; 0.01 µM
  increase in dead-cell fraction: 0.0064
THZ531 [3]; 0.03162 µM
  increase in dead-cell fraction: 0.0382
THZ531 [3]; 0.1 µM
  increase in dead-cell fraction: 0.104
THZ531 [3]; 0.3162 µM
  increase in dead-cell fraction: 0.168
THZ531 [3]; 1 µM
  increase in dead-cell fraction: 0.141
BSJ-03-123; 0.001 µM
  increase in dead-cell fraction: -0.0103
BSJ-03-123; 0.003162 µM
  increase in dead-cell fraction: 0.0028
BSJ-03-123; 0.01 µM
  increase in dead-cell fraction: 0.0034
BSJ-03-123; 0.03162 µM
  increase in dead-cell fraction: 0.0062
BSJ-03-123; 0.1 µM
  increase in dead-cell fraction: 0.0131
BSJ-03-123; 0.3162 µM
  increase in dead-cell fraction: 0.0169
BSJ-03-123; 1 µM
  increase in dead-cell fraction: 0.0332
BSJ-03-123; 3.162 µM
  increase in dead-cell fraction: 0.0309
BSJ-03-123; 10 µM
  increase in dead-cell fraction: 0.128
THZ1 [4]; 0.0001 µM
  increase in dead-cell fraction: -0.0001
THZ1 [4]; 0.0003162 µM
  increase in dead-cell fraction: -0.0124
THZ1 [4]; 0.001 µM
  increase in dead-cell fraction: -0.0067
THZ1 [4]; 0.003162 µM
  increase in dead-cell fraction: -0.0067
THZ1 [4]; 0.01 µM
  increase in dead-cell fraction: 0.0039
THZ1 [4]; 0.03162 µM
  increase in dead-cell fraction: 0.0402
THZ1 [4]; 0.1 µM
  increase in dead-cell fraction: 0.165
THZ1 [4]; 0.3162 µM
  increase in dead-cell fraction: 0.149
THZ1 [4]; 1 µM
  increase in dead-cell fraction: 0.313
LEE011/Ribociclib; 0.001 µM
  increase in dead-cell fraction: -0.0034
LEE011/Ribociclib; 0.003162 µM
  increase in dead-cell fraction: -0.0042
LEE011/Ribociclib; 0.01 µM
  increase in dead-cell fraction: 0.0065
LEE011/Ribociclib; 0.03162 µM
  increase in dead-cell fraction: -0.0098
LEE011/Ribociclib; 0.1 µM
  increase in dead-cell fraction: -0.0059
LEE011/Ribociclib; 0.3162 µM
  increase in dead-cell fraction: -0.0074
LEE011/Ribociclib; 1 µM
  increase in dead-cell fraction: -0.0071
LEE011/Ribociclib; 3.162 µM
  increase in dead-cell fraction: -0.01
LEE011/Ribociclib; 10 µM
  increase in dead-cell fraction: -0.0011
[5]
  GR50, 72 h: 0.00342 µM
Rucaparib
  GR50, 72 h: 8.56 µM
Saracatinib/AZD0530
  GR50, 72 h: 4.96 µM
[6]
  GR50, 72 h: 0.133 µM
Cediranib/AZD2171
  GR50, 72 h: 3.92 µM
[7]
  GR50, 72 h: 0.0123 µM
BVD523
  GR50, 72 h: 1.64 µM
Alpelisib/BYL719
  GR50, 72 h: > 10 µM
AZD1775
  GR50, 72 h: 0.25 µM
THZ531 [8]
  GR50, 72 h: 0.0412 µM
THZ1 [9]
  GR50, 72 h: 0.0236 µM
[10]
  GR50, 72 h: 0.442 µM
